Assay results published in ChEMBL document CHEMBL5226288, “A perspective on medicinal chemistry approaches towards adenomatous polyposis coli and Wnt signal based colorectal cancer inhibitors” (Eur J Med Chem, 2021).
One block for each compound: values may come before it.

Experiments:
HCT-116 [1] = test: Anticancer activity against human HCT-116 cells assessed as reduction in cell viability incubated for 48 hrs by MTT assay; type: functional, cell-based; conditions: HCT-116, 48 h
DLD-1 [2] = test: Anticancer activity against human DLD-1 cells assessed as reduction in cell viability incubated for 48 hrs by MTT assay; type: functional, cell-based; conditions: DLD-1, 48 h
DLD-1 [3] = test: Antiproliferative activity against human DLD-1 cells assessed as reduction in cell viability by MTS assay; type: functional, cell-based
HCT-116 [4] = test: Antiproliferative activity against human HCT-116 cells assessed as decrease in cell growth incubated for 24 hrs by MTS assay; type: functional, cell-based; conditions: HCT-116, 24 h
[5] = target: T1, Poly [ADP-ribose] polymerase tankyrase-1 (Homo sapiens, UniProt O95271); test: Inhibition of TNKS1 (unknown origin)
T1 sequence (O95271 whole entry): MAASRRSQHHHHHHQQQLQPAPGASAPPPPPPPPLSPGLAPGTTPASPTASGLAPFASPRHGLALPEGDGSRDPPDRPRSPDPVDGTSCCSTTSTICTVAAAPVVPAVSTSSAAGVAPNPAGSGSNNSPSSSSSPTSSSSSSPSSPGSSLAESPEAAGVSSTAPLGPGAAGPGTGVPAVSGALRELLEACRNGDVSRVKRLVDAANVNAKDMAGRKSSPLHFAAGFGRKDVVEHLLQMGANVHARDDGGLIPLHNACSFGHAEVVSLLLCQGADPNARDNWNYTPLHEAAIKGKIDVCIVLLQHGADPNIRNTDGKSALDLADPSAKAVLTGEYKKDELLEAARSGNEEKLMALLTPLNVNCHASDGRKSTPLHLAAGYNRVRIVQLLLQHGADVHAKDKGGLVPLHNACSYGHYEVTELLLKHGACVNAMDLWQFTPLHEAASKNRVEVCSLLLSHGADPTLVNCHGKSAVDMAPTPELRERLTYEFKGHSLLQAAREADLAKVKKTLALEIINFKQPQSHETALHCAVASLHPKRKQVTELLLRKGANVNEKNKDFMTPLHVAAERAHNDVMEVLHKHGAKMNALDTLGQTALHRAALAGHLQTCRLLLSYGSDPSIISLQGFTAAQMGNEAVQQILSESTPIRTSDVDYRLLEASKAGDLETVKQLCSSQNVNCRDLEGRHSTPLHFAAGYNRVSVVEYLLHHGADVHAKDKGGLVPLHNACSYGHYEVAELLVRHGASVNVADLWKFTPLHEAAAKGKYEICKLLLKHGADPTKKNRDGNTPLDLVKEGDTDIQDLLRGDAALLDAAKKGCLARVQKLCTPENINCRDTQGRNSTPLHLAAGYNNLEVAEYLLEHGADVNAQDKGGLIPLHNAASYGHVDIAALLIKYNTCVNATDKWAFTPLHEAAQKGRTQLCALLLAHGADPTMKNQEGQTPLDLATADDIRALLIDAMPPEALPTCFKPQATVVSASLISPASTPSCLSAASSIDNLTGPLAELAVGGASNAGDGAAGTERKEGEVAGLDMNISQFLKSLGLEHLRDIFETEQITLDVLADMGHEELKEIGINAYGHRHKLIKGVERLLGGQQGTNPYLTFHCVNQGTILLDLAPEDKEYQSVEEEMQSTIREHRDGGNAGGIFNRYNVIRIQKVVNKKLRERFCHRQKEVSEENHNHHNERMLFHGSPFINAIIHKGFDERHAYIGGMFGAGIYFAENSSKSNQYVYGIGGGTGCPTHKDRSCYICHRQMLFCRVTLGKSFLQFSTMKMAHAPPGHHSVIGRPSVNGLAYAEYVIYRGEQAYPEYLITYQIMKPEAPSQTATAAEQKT

[6] = target: T2, Poly [ADP-ribose] polymerase tankyrase-2 (Homo sapiens, UniProt Q9H2K2); test: Inhibition of TNKS2 (unknown origin)
T2 sequence (Q9H2K2 whole entry): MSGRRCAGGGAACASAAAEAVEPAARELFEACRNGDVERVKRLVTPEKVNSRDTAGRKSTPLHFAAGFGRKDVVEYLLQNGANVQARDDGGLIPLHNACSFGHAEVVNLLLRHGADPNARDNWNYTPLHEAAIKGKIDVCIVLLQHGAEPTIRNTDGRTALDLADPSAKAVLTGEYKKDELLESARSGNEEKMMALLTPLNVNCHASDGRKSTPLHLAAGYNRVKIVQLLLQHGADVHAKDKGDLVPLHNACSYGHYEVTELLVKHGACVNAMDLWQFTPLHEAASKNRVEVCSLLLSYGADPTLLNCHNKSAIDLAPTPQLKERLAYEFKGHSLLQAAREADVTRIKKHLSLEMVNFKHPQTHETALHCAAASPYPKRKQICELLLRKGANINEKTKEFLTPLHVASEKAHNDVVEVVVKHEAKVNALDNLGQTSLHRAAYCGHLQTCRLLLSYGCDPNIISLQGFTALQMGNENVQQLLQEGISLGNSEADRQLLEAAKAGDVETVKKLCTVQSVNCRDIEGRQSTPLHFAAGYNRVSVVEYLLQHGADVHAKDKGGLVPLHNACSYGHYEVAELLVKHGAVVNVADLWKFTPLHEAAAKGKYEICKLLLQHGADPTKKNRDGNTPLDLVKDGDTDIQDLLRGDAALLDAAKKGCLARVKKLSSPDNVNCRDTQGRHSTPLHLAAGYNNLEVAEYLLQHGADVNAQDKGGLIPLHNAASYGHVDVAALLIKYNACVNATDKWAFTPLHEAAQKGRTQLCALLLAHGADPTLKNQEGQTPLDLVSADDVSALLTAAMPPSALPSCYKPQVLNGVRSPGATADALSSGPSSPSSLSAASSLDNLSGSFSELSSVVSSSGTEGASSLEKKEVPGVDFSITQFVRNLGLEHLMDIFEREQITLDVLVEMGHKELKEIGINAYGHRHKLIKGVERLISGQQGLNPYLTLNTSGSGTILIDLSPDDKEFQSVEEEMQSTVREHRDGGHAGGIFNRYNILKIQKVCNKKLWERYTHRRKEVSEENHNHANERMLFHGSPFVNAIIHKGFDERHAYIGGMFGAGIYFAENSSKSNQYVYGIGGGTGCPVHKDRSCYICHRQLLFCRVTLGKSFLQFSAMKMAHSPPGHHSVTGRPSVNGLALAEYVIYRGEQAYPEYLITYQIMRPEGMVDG

SW480 [7] = test: Antiproliferative activity against human SW480 cells assessed as reduction in cell viability incubated for 72 hrs by MTT assay; type: functional, cell-based; conditions: SW480, 72 h
HCT-116 [8] = test: Antiproliferative activity against human HCT-116 cells assessed as reduction in cell viability incubated for 48 hrs by MTT assay; type: functional, cell-based; conditions: Homo sapiens, HCT-116, 48 h; read-out: IC50
SW480 [9] = test: Antiproliferative activity against human SW480 cells assessed as reduction in cell viability incubated for 48 hrs by MTT assay; type: functional, cell-based; conditions: SW480, 48 h
Mus musculus = species: Mus musculus; test: Anticancer activity against C57BL/6J mouse small intestine organoid assessed as decrease in cell growth and measured after 4 days by qPCR analysis; type: functional; conditions: 96 h
LoVo = test: Antiproliferative activity against human LoVo cells assessed as decrease in cell viability by MTT assay; type: functional, cell-based
SW480 [10] = test: Anticancer activity against human SW480 cells assessed as reduction in cell viability incubated for 24 hrs by MTT assay; type: functional, cell-based; conditions: SW480, 24 h
HCT-116 [11] = test: Anticancer activity against human HCT-116 cells assessed as reduction in cell viability incubated for 24 hrs by MTT assay; type: functional, cell-based; conditions: HCT-116, 24 h
SW480 [12] = test: Antiproliferative activity against human SW480 cells assessed as reduction in cell proliferation; type: functional, cell-based
DLD-1 [13] = test: Antiproliferative activity against human DLD-1 cells assessed as reduction in cell proliferation; type: functional, cell-based
HCT-116 [14] = test: Cytotoxicity in human HCT-116 cells expressing wild type APC assessed as reduction in cell viability incubated for 96 hrs by Cell Titer-Glo assay; type: functional, cell-based; conditions: HCT-116, 96 h
DLD-1 [15] = test: Cytotoxicity in human DLD-1 cells expressing APC mutant assessed as reduction in cell viability incubated for 96 hrs by Cell Titer-Glo assay; type: functional, cell-based; conditions: DLD-1, 96 h
HCT-116 [16] = test: Anticancer activity against human HCT-116 cells assessed as reduction in cell growth incubated for 72 hrs by MTT assay; type: functional, cell-based; conditions: HCT-116, 72 h
SW480 [17] = test: Anticancer activity against human SW480 cells assessed as reduction in cell growth incubated for 72 hrs by MTT assay; type: functional, cell-based; conditions: SW480, 72 h
DLD-1 [18] = test: Anticancer activity against human DLD-1 cells assessed as reduction in cell growth incubated for 72 hrs by MTT assay; type: functional, cell-based; conditions: DLD-1, 72 h

IC50 (HCT-116 [1]): 100 µM
IC50 (DLD-1 [2]): 100 µM
SMILES: CCCCCCCCCCCCCC(C(=O)O)C(O)(CC(=O)OC)C(=O)O (configuration not stated)

IC50 (DLD-1 [3]): 50 µM
SMILES: O=c1c(-c2ccc(O)cc2)coc2cc(O)cc(O)c12 [GENISTEIN]

SMILES: O=C(O[C@@H]1Cc2c(O)cc(O)cc2O[C@@H]1c1cc(O)c(O)c(O)c1)c1cc(O)c(O)c(O)c1 [EPIGALOCATECHIN GALLATE]
IC50 (HCT-116 [4]): 5 µM

IC50 [5]: 0.046 µM
IC50 [6]: 0.025 µM
SMILES: Cc1ccccc1-n1c(/C=C/c2nnc(-c3ccc(C#N)cc3)o2)nnc1-c1ccc(S(C)(=O)=O)cn1

IC50 (SW480 [7]): 1.7 µM
SMILES: C=C1C(=O)[C@]23CC[C@H]1C[C@H]2[C@@]12CCC[C@@](C)(COC1=O)[C@H]2C[C@H]3O

IC50 (HCT-116 [8]): 20 µM
IC50 (SW480 [9]): 20 µM
SMILES: C=C1C(=O)[C@@]23[C@H](O)CC4C(C)(C)[C@@H](OC(C)=O)CC[C@@]4(C)[C@@H]2[C@@H]2O[C@@H]2[C@@H]1[C@H]3O (some centres not stated)

SMILES: CS(=O)(=O)c1ccccc1N1CCN(c2nc(O)c3c(n2)CCSC3)CC1
IC50 (Mus musculus): 0.11 µM

IC50 [5]: 1.9 µM
IC50 [6]: 0.85 µM
SMILES: COc1ccc(C2(CNC(=O)c3ccc(NC(=O)c4ccco4)cc3)CCOCC2)cc1

IC50 (LoVo): 55 µM
SMILES: Oc1ccc(/C=C/c2cc(O)cc(O)c2)cc1 [RESVERATROL]

IC50 (SW480 [10]): 16.1 µM
IC50 (HCT-116 [11]): 18.2 µM
SMILES: CC(C)(C)[Si](OC[C@@]1(C)C2CC[C@@]3(CO3)[C@@H](C/C=C3/C(=O)OC[C@H]3O)[C@]2(C)CC[C@H]1O)(c1ccccc1)c1ccccc1 (some centres not stated)

IC50 (SW480 [12]): 3.9 µM
IC50 (DLD-1 [13]): 3.4 µM
SMILES: O=C(O)c1ccc(-n2nc(-c3ccccc3O)nc2-c2ccccc2O)cc1 [DEFERASIROX]

SMILES: CC[C@H](C)C(=O)O[C@H]1CCC=C2C=C[C@H](C)[C@H](CC[C@@H]3C[C@@H](O)CC(=O)O3)[C@H]21 [MEVASTATIN]
IC50 (HCT-116 [14]): 18.6 µM
IC50 (DLD-1 [15]): 3.2 µM

IC50 (HCT-116 [16]): < 200 µM
IC50 (SW480 [17]): < 200 µM
IC50 (DLD-1 [18]): < 200 µM
SMILES: O=C(/C=C/C=C/c1ccc2c(c1)OCO2)N1CCCCC1 [PIPERINE]
